In article PMC12396409, “Screening and hit evaluation of a microbial metabolite library against the pathogenic Plasmodium falciparum and Toxoplasma gondii parasites” (International Journal for Parasitology: Drugs and Drug …, 2025):
Counter-ions that a name gives are not always drawn. Like-named read-outs stand apart in the source and are kept apart here. Where a SMILES comes first, the peptide text is derived from it. Bridges are numbered along the chain shown (N, C = ends). [ ]: non-standard residue; d: D form. The star is where a group is joined. Octatrienoyl(2E,4E,6E) = C/C=C/C=C/C=C/C(=O)*; d(aIle) = CC[C@H](C)[C@@H](N)C(=O)O; NMeL = CN[C@@H](CC(C)C)C(=O)O; Hiv = CC(C)[C@H](O)C(=O)O; NMeA = CN[C@@H](C)C(=O)O

Key:
[1] = test system: P. falciparum 3D7 parasites; assay: P. falciparum growth inhibition assay, 1-cycle (72 h treatment), SYBR DNA staining (library screen at 2 μg/mL and dose-response); format: cell-based, Plasmodium falciparum; conditions: for activity at 2 µg/mL: Plasmodium falciparum
[2] = test system: T. gondii RH strain (RH-Tub-eYFP) tachyzoites; assay: microbe, parasite or virus in culture; format: cell-based, Toxoplasma gondii; conditions: 72 h; for percent parasite growth at 2 µg/mL: Toxoplasma gondii
[3] = test system: P. falciparum 3D7 parasites; assay: P. falciparum growth inhibition assay, 2-cycle (120 h treatment), delayed-death screen and dose-response; format: cell-based, Plasmodium falciparum; conditions: for activity at 2 µg/mL: Plasmodium falciparum
[4] = P. falciparum, 72 h, screen at 2 μg/mL, replicate 1
[5] = P. falciparum, 72 h, screen at 2 μg/mL, replicate 2
[6] = T. gondii, screen at 2 μg/mL, replicate 1
[7] = T. gondii, screen at 2 μg/mL, replicate 2
[8] = P. falciparum, 120 h, screen at 2 μg/mL, replicate 1
[9] = P. falciparum, 120 h, screen at 2 μg/mL, replicate 2
[10] = P. falciparum, 72 h, parasite screen 2 μg/mL, % growth, replicate 1
[11] = P. falciparum, 72 h, parasite screen 2 μg/mL, % growth, replicate 2
[12] = T. gondii, parasite screen 2 μg/mL, % growth, replicate 1
[13] = T. gondii, parasite screen 2 μg/mL, % growth, replicate 2
[14] = P. falciparum, 120 h, parasite screen 2 μg/mL, % growth, replicate 1
[15] = P. falciparum, 120 h, parasite screen 2 μg/mL, % growth, replicate 2
[16] = library screen at 2 μg/mL, % growth, replicate 1, read-out: Tg_72h_%Growth_Rep1
[17] = library screen at 2 μg/mL, % growth, replicate 2, read-out: Tg_72h_%Growth_Rep2

C=CC(C)(C)c1[nH]c2ccccc2c1C[C@@H]1NC(=O)[C@@H]2CCCN2C1=O [Deoxybrevianamide E]
Pf_72h_%Growth_Rep1 [1, 4]: 84.72%
Pf_72h_%Growth_Rep2 [1, 5]: 85.50%
Tg_72h_%Growth_Rep1 [2, 6]: 164.73%
Tg_72h_%Growth_Rep2 [2, 7]: 103.33%
Pf_120h_%Growth_Rep1 [3, 8]: 100.44%
Pf_120h_%Growth_Rep2 [3, 9]: 95.74%

O=C(O)c1nccc2c1[nH]c1ccccc12 [Carboline 1-carboxylic acid, β-]
Pf_72h_%Growth_Rep1 [1, 4]: 89.67%
Pf_72h_%Growth_Rep2 [1, 5]: 90.01%
Tg_72h_%Growth_Rep1 [2, 6]: 4.34%
Tg_72h_%Growth_Rep2 [2, 7]: 7.03%
Pf_120h_%Growth_Rep1 [3, 8]: 166.51%
Pf_120h_%Growth_Rep2 [3, 9]: 96.73%

CN[C@H](CC(C)C)C(=O)N[C@H]1C(=O)N[C@@H](CC(N)=O)C(=O)N[C@H]2C(=O)N[C@H]3C(=O)N[C@H](C(=O)N[C@H](C(=O)O)c4cc(O)cc(O)c4-c4cc3ccc4O)[C@H](O)c3ccc(c(Cl)c3)Oc3cc2cc(c3O[C@@H]2O[C@H](CO)[C@@H](O)[C@H](O)[C@H]2O[C@H]2C[C@](C)(N)[C@H](O)[C@H](C)O2)Oc2ccc(cc2Cl)[C@H]1O [Vancomycin hydrochloride]
activity at 2 µg/mL ([1]; 3D7, 72 h, read-out: Pf_72h_%Growth_Rep1): 88%
activity at 2 µg/mL ([1]; 3D7, 72 h, read-out: Pf_72h_%Growth_Rep2): 120%
percent parasite growth at 2 µg/mL ([2]; read-out: Tg_72h_%Growth_Rep1): 108%
percent parasite growth at 2 µg/mL ([2]; read-out: Tg_72h_%Growth_Rep2): 80.9%
activity at 2 µg/mL ([3]; 3D7, 120 h, read-out: Pf_120h_%Growth_Rep1): 110%
activity at 2 µg/mL ([3]; 3D7, 120 h, read-out: Pf_120h_%Growth_Rep2): 98.5%

CC(C)C[C@@H]1NC(=O)[C@@H]2CCCN2C1=O [Cyclo(L-Leu-L-Pro)]
Pf_72h_%Growth_Rep1 [1, 4]: 83.89%
Pf_72h_%Growth_Rep2 [1, 5]: 81.36%
Tg_72h_%Growth_Rep1 [2, 6]: 124.64%
Tg_72h_%Growth_Rep2 [2, 7]: 91.02%
Pf_120h_%Growth_Rep1 [3, 8]: 82.10%
Pf_120h_%Growth_Rep2 [3, 9]: 83.93%

CN(N=O)C(=O)N[C@H]1C(O)O[C@H](CO)[C@@H](O)[C@@H]1O (mixture of isomers) [Streptozotocin]
Pf_72h_%Growth_Rep1 [1, 10]: 87.59%
Pf_72h_%Growth_Rep2 [1, 11]: 86.69%
Tg_72h_%Growth_Rep1 [2, 12]: 87.36%
Tg_72h_%Growth_Rep2 [2, 13]: 105.65%
Pf_120h_%Growth_Rep1 [3, 14]: 176.62%
Pf_120h_%Growth_Rep2 [3, 15]: 92.69%

CC[C@H](C)[C@H]1NC(=O)[C@H](C(C)C)OC(=O)[C@H](CC(C)C)N(C)C(=O)[C@H](C(C)C)NC(=O)[C@H](C(C)C)OC(=O)[C@@H](CC(C)C)NC1=O [Sporidesmolide II] (cyclo([Hiv]V[NMeL][Hiv][d(aIle)][dL]))
Pf_72h_%Growth_Rep1 [1, 10]: 88.48%
Pf_72h_%Growth_Rep2 [1, 11]: 54.25%
Tg_72h_%Growth_Rep1 [2, 12]: 96.52%
Tg_72h_%Growth_Rep2 [2, 13]: 86.44%
Pf_120h_%Growth_Rep1 [3, 14]: 86.28%
Pf_120h_%Growth_Rep2 [3, 15]: 130.73%

C=CC(C)(C)[C@@]12C[C@H]3C(=O)N4[C@@H](C[C@@]5(C(C)(C)C=C)c6ccccc6N[C@@H]45)C(=O)N3[C@@H]1Nc1ccccc12 [Amauromine]
activity at 2 µg/mL ([1]; 3D7, 72 h, library screen at 2 μg/mL, 72 h, % growth, replicate 1, read-out: Pf_72h_%Growth_Rep1): 3.52%
activity at 2 µg/mL ([1]; 3D7, 72 h, library screen at 2 μg/mL, 72 h, % growth, replicate 2, read-out: Pf_72h_%Growth_Rep2): 3.82%
percent parasite growth at 2 µg/mL [2, 16]: 139%
percent parasite growth at 2 µg/mL [2, 17]: 104%
activity at 2 µg/mL ([3]; 3D7, 120 h, library screen at 2 μg/mL, 120 h, % growth, replicate 1, read-out: Pf_120h_%Growth_Rep1): 7.96%
activity at 2 µg/mL ([3]; 3D7, 120 h, library screen at 2 μg/mL, 120 h, % growth, replicate 2, read-out: Pf_120h_%Growth_Rep2): 0.67%

C[C@@H](O)[C@H]1C(=O)N2C(C(=O)O)=C(S[C@@H]3CN[C@H](CNS(N)(=O)=O)C3)[C@H](C)[C@H]12 [Doripenem]
activity at 2 µg/mL ([1]; 3D7, library screen at 2 μg/mL, 72 h, % growth, replicate 1, read-out: Pf_72h_%Growth_Rep1): 81.9%
activity at 2 µg/mL ([1]; 3D7, library screen at 2 μg/mL, 72 h, % growth, replicate 2, read-out: Pf_72h_%Growth_Rep2): 66.8%
percent parasite growth at 2 µg/mL [2, 16]: 119%
percent parasite growth at 2 µg/mL [2, 17]: 89.3%
activity at 2 µg/mL ([3]; 3D7, library screen at 2 μg/mL, 120 h, % growth, replicate 1, read-out: Pf_120h_%Growth_Rep1): 85.1%
activity at 2 µg/mL ([3]; 3D7, library screen at 2 μg/mL, 120 h, % growth, replicate 2, read-out: Pf_120h_%Growth_Rep2): 121%

C/C=C/C=C/C=C/C(=O)N[C@@H](Cc1ccccc1)C(=O)N[C@H]1COC(=O)[C@@H]2CCCN2C(=O)[C@H](C)NC(=O)[C@H](C)N(C)C(=O)[C@@H]2CCCN2C1=O [A 54556B] ({Octatrienoyl(2E,4E,6E)}-FSP[NMeA]AP; ester 2-C)
Pf_72h_%Growth_Rep1 ([1]; library screen at 2 μg/mL, 72 h, % growth, replicate 1): 78.68%
Pf_72h_%Growth_Rep2 ([1]; library screen at 2 μg/mL, 72 h, % growth, replicate 2): 74.34%
Tg_72h_%Growth_Rep1 ([2]; library screen at 2 μg/mL, % growth, replicate 1): 115.90%
Tg_72h_%Growth_Rep2 ([2]; library screen at 2 μg/mL, % growth, replicate 2): 86.45%
Pf_120h_%Growth_Rep1 ([3]; library screen at 2 μg/mL, 120 h, % growth, replicate 1): 65.42%
Pf_120h_%Growth_Rep2 ([3]; library screen at 2 μg/mL, 120 h, % growth, replicate 2): 57.54%
